Experimental data taken from US6809110B2 (Hoffmann-La Roche Inc., priority 2002, dated 2004).

Row | SMILES | melting point
1 | CCOC(Cc1ccc(OCCc2nc(-c3ccccc3)sc2C)c2ccsc12)C(=O)O (racemic) [Example 1, [rac]-2-Ethoxy-3-{4-[2-(5-methyl-2-phenyl-thiazol-4-yl)-ethoxy]-benzo[b]thiophen-7-yl}-propionic acid] | 146 to 148 °C
2 | CCOC(Cc1ccc(OCCc2nc(-c3ccccc3)sc2C)c2ccccc12)C(=O)O (racemic) [Example 51, [rac]-2-Ethoxy-3-{4-[2-(5-methyl-2-phenyl-thiazol-4-yl)-ethoxy]-naphthalen-1-yl}-propionic acid] | 140 to 143 °C
3 | CCOC(Cc1ccc(OCCc2nc(-c3ccc(C)cc3)sc2C)c2ccsc12)C(=O)O (racemic) [Example 72, [rac]-2-Ethoxy-3-{4-[2-(5-methyl-2-p-tolyl-thiazol-4-yl)-ethoxy]-benzo[b]thiophen-7-yl}-propionic acid] | 126 to 127 °C
4 | CCOC(Cc1ccc(OCCc2nc(-c3ccc(C(C)(C)C)cc3)sc2C)c2ccccc12)C(=O)O (racemic) [Example 73, [rac]-3-(4-{2-[2-(4-tert-Butyl-phenyl)-5-methyl-thiazol-4-yl]-ethoxy}-naphthalen-1-yl)-2-ethoxy-propionic acid] | 90 to 93 °C
5 | CCOC(Cc1ccc(OCCc2nc(-c3ccc(C(C)(C)C)cc3)sc2C)c2ccsc12)C(=O)O (racemic) [Example 74, [rac]-3-(4-{2-[2-(4-tert-Butyl-phenyl)-5-methyl-thiazol-4-yl]-ethoxy}-benzo[b]thiophen-7-yl)-2-ethoxy-propionic acid] | 152 to 154 °C
6 | CCOC(Cc1ccc(OCCc2nc(-c3ccc(C(C)C)cc3)sc2C)c2ccsc12)C(=O)O (racemic) [Example 75, [rac]-2-Ethoxy-3-(4-{2-[2-(4-isopropyl-phenyl)-5-methyl-thiazol-4-yl]-ethoxy}-benzo[b]thiophen-7-yl)-propionic acid] | 120 to 122 °C
7 | CCOC(Cc1ccc(OCCc2nc(-c3ccc(C(C)C)cc3)sc2C)c2ccccc12)C(=O)O (racemic) [Example 77, [rac]-2-Ethoxy-3-(4-{2-[2-(4-isopropyl-phenyl)-5-methyl-thiazol-4-yl]-ethoxy}-naphthalen-1-yl)-propionic acid] | 111 to 113 °C
8 | CCOC(Cc1ccc(OCCc2nc(-c3ccc(C)cc3)sc2C)c2ccccc12)C(=O)O (racemic) [Example 78, [rac]-2-Ethoxy-3-{4-[2-(5-methyl-2-p-tolyl-thiazol-4-yl)-ethoxy]-naphthalen-1-yl}-propionic acid] | 140 to 141 °C
9 | Cc1sc(-c2ccccc2)nc1CCOc1ccc(CC(OC(C)C)C(=O)O)c2sccc12 (racemic) [Example 79, [rac]-2-Isopropoxy-3-{4-[2-(5-methyl-2-phenyl-thiazol-4-yl)-ethoxy]-benzo[b]thiophen-7-yl}-propionic acid] | 73 °C
10 | CCCOC(Cc1ccc(OCCc2nc(-c3ccccc3)sc2C)c2ccccc12)C(=O)O (racemic) [Example 80, [rac]-3-{4-[2-(5-Methyl-2-phenyl-thiazol-4-yl)-ethoxy]-naphthalen-1-yl}-2-propoxy-propionic acid] | 95 to 99 °C
11 | COC(Cc1ccc(OCCc2nc(-c3ccc(C)cc3)sc2C)c2ccccc12)C(=O)O (racemic) [Example 81, [rac]-2-Methoxy-3-{4-[2-(5-methyl-2-p-tolyl-thiazol-4-yl)-ethoxy]-naphthalen-1-yl}-propionic acid] | 155 to 156 °C
12 | CCCOC(Cc1ccc(OCCc2nc(-c3ccc(C)cc3)sc2C)c2ccccc12)C(=O)O (racemic) [Example 82, [rac]-3-{4-[2-(5-Methyl-2-p-tolyl-thiazol-4-yl)-ethoxy]-naphthalen-1-yl}-2-propoxy-propionic acid] | 123 to 124 °C
13 | CCOC(Cc1ccc(OCCc2nc(-c3cc(OC)cc(OC)c3)sc2C)c2ccsc12)C(=O)O (racemic) [Example 83, [rac]-3-(4-{2-[2-(3,5-Dimethoxy-phenyl)-5-methyl-thiazol-4-yl]-ethoxy}-benzo[b]thiophen-7-yl)-2-ethoxy-propionic acid] | 148 to 150 °C
14 | COc1cc(OC)cc(-c2nc(CCOc3ccc(CC(OC)C(=O)O)c4sccc34)c(C)s2)c1 (racemic) [Example 84, [rac]-3-(4-{2-[2-(3,5-Dimethoxy-phenyl)-5-methyl-thiazol-4-yl]-ethoxy}-benzo[b]thiophen-7-yl)-2-methoxy-propionic acid] | 156 to 157 °C
15 | COc1cc(OC)cc(-c2nc(CCOc3ccc(CC(OC(C)C)C(=O)O)c4sccc34)c(C)s2)c1 (racemic) [Example 85, [rac]-3-(4-{2-[2-(3,5-Dimethoxy-phenyl)-5-methyl-thiazol-4-yl]-ethoxy}-benzo[b]thiophen-7-yl)-2-isopropoxy-propionic acid] | 150 to 152 °C
16 | Cc1sc(-c2ccc(C(C)(C)C)cc2)nc1CCOc1ccc(CC(OC(C)C)C(=O)O)c2ccccc12 (racemic) [Example 86, [rac]-3-(4-{2-[2-(4-tert-Butyl-phenyl)-5-methyl-thiazol-4-yl]-ethoxy}-naphthalen-1-yl)-2-isopropoxy-propionic acid] | 75 to 85 °C
17 | CCCOC(Cc1ccc(OCCc2nc(-c3ccc(C(C)(C)C)cc3)sc2C)c2ccsc12)C(=O)O (racemic) [Example 87, [rac]-3-(4-{2-[2-(4-tert-Butyl-phenyl)-5-methyl-thiazol-4-yl]-ethoxy}-benzo[b]thiophen-7-yl)-2-propoxy-propionic acid] | 76 °C
18 | CCOC(Cc1ccc(OCCc2nc(-c3cc(OC)cc(OC)c3)sc2C)c2ccccc12)C(=O)O (racemic) [Example 88, [rac]-3-(4-{2-[2-(3,5-Dimethoxy-phenyl)-5-methyl-thiazol-4-yl]-ethoxy}-naphthalen-1-yl)-2-ethoxy-propionic acid] | 133 to 135 °C
19 | COC(Cc1ccc(OCc2sc(-c3ccc(C(F)(F)F)cc3)nc2C)c2ccccc12)C(=O)O (racemic) [Example 136, [rac]-2-Methoxy-3-{4-[4-methyl-2-(4-trifluoromethyl-phenyl)-thiazol-5-ylmethoxy]-naphthalen-1-yl}-propionic acid] | 190 to 192 °C
20 | CCOC(Cc1ccc(OCc2sc(-c3ccc(C(F)(F)F)cc3)nc2C)c2ccccc12)C(=O)O (racemic) [Example 137, [rac]-2-Ethoxy-3-{4-[4-methyl-2-(4-trifluoromethyl-phenyl)-thiazol-5-ylmethoxy]-naphthalen-1-yl}-propionic acid] | 186 to 188 °C
21 | COC(Cc1ccc(OCc2sc(-c3ccc(C(F)(F)F)cc3)nc2C)c2ccsc12)C(=O)O (racemic) [Example 138, [rac]-2-Methoxy-3-{4-[4-methyl-2-(4-trifluoromethyl-phenyl)-thiazol-5-ylmethoxy]-benzo[b]thiophen-7-yl}-propionic acid] | 140 to 142 °C (dec.)
22 | CCOC(Cc1ccc(OCc2sc(-c3ccc(C(F)(F)F)cc3)nc2C)c2ccsc12)C(=O)O (racemic) [Example 139, [rac]-2-Ethoxy-3-{4-[4-methyl-2-(4-trifluoromethyl-phenyl)-thiazol-5-ylmethoxy]-benzo[b]thiophen-7-yl}-propionic acid] | 178 to 179 °C
